Measured values taken from patent US20240391923A1, “METHIONINE ADENOSYLTRANSFERASE 2A INHIBITOR FOR TREATING MTAP DELETION-TYPE CANCER” (SUZHOU GENHOUSE BIO CO., LTD., priority 2022, published 2024).
Like-named read-outs stand apart in the source and are kept apart here.

Tests used:
[1] = system: HCT116-MTAP-knockout (−/−) cell strain; experiment: Tumor cell proliferation inhibition assay (CellTiter-Glo), HCT116-MTAP-knockout (-/-); assay type: cell-based; settings: Homo sapiens, 120 h, 5-day treatment
Experimental: (§1) After the HCT116-MTAP-knockout (−/−) cell strain, the HCT116-MTAP wild-type(+/+)-cell strain, the DOHH-2 cell strain, or the Hut-78 cell strain was treated with the test compound for 5 days, the ATP level was measured using a CellTiter-Glo kit of Promega to evaluate the inhibition of the test compound against the growth of the tumor cell strain.
(§2) In the present application, the HCT116-MTAP-knockout (−/−) cell strain, the HCT116-MTAP wild-type (+/+)-cell strain, the DOHH-2 cell strain, or the Hut-78 cell strain was seeded into a 96-well cell culture plate at an appropriate cell density. After 24 h, the cells were treated using the test compounds diluted 1:3 fold at the highest concentration of 10 μM for 10 gradients, and a DMSO treatment group was set up separately. The cells were cultured in a 37° C./5% CO2 incubator for 5 days.

[2] = target: MAT2A recombinant protein (Homo sapiens, UniProt P31153); experiment: MAT2A inhibitory activity (malachite green colorimetric enzyme assay); assay type: biochemical
Source text: MAT2A catalyzes the reaction of L-methionine and ATP to generate S-adenosylmethionine (SAM), inorganic phosphonic acid, and inorganic diphosphonic acid. Malachite green reacts with inorganic phosphonic acid to generate a green product, and the enzyme activity of MAT2A can be indirectly reflected by detecting the content of the inorganic phosphonic acid in a sample.
The test compounds were formulated using DMSO and diluted 1:3 diluted through 10 concentration points to give a final starting concentration in the reaction system of 1000 nM. The test compounds at different concentrations described above were transferred to a 384-well plate. Experimental buffer (50 mM HEPES pH 7.5, 50 mM KCl, 10 mM MgCl2, 10 mM DTT) was prepared. 2×MAT2A recombinant protein was prepared using the buffer and added to a 384-well plate. A mixed solution of 2×L-methionine and ATP was prepared using the buffer, and added to a 384-well plate. The enzymatic reaction was started, and the reaction was carried out at room temperature for 60 min. 20 μL of a colorimetric detection reagent was added to the above system, and incubated at room temperature for 15 min. The absorbance at 630 nm was measured. The inhibition rate of the compound on the enzyme activity was calculated, and the inhibition rate value and the logarithm value of the compound concentration were fitted using non-linear regression (dose response-variable slope) to give the IC50 value of the test compound.

[3] = system: SDMA in human colon cancer cell line HCT116; experiment: Cell symmetric dimethylarginine (SDMA) test, In-cell Western, HCT116 (MTAP wild-type); assay type: cell-based; settings: Homo sapiens, HCT-116, 96 h
Source text: MAT2A catalyzes the reaction of L-methionine and ATP to generate SAM, inorganic phosphonic acid, and inorganic diphosphonic acid. SAM is an important methyl donor, and is a substrate of arginine methyltransferase 5 (PRMT5). PRMT5 catalyzes SDMA modification of multiple proteins within a cell. The intracellular SDMA modification level was detected by ICW (In-cell Western), and the inhibition of the test compound on the enzymatic activity of intracellular MAT2A was indirectly reflected.
In the present application, the human colon cancer cell line HCT116 and the corresponding HCT116-MTAP-knockout cell line were seeded into a 96-well cell culture plate at an appropriate cell density. After 24 h, the cells were treated using the test compounds diluted 1:4 fold at the highest concentration of 6 μM for 6 gradients, and a DMSO treatment group was set up separately. The cells were cultured in a 37° C./5% CO2 incubator for 4 days. To test the inhibitory activity of the test compounds against tumor cell SDMA, the medium was discarded, and the plate was washed 3 times with PBST. 4% paraformaldehyde was then used at room temperature for fixation for 20 min. The fixation solution was discarded, the plate was washed 3 times with PBST, and a special blocking solution was added to each well for blocking at room temperature for 2 h. The blocking solution was discarded. After the plate was washed 3 times with PBST, the plate was incubated with SDMA antibody at 4° C. overnight. The next day, the plate was washed 3 times with PBST. The secondary antibody and DRAQ5 were diluted to an appropriate concentration with the blocking solution, and incubated at room temperature for 2 h; the plate was washed 3 times with PBST, and the fluorescence signals at 700 nm and 800 nm were detected using a Li—COR Odyssey two-color near-infrared laser imager.
The data was then processed. After the corresponding background value was subtracted from each well, statistical analysis was performed on the 800 nm/700 nm ratio for each well, a sigmoidal dose-inhibition curve was plotted using a non-linear regression model, and IC50 values were fitted and calculated. Inhibition Rate (%)=(1−SDMA dose/SDMA DMSO control)*100. SDMA dose is the value of the drug treatment group, and SDMA DMSO control is the value of the DMSO control group.

[4] = system: SDMA in HCT116-MTAP-knockout cell line; experiment: Cell symmetric dimethylarginine (SDMA) test, In-cell Western, HCT116-MTAP-knockout; assay type: cell-based; settings: Homo sapiens, 96 h
[5] = system: HCT116-MTAP wild-type (+/+)-cell strain; experiment: Tumor cell proliferation inhibition assay (CellTiter-Glo), HCT116-MTAP wild-type (+/+); assay type: cell-based; settings: Homo sapiens, 120 h, 5-day treatment
Experimental: as §1, §2

[6] = HCT116-MTAP-knockout (−/−) cells, IC50 score, read-out: Tumor cell 5-day relative growth inhibition (HCT116-MTAP−/−) (nM), score
[7] = HCT116-MTAP-knockout (−/−) cells, IC50 value, read-out: Tumor cell 5-day relative growth inhibition (HCT116-MTAP−/−)
[8] = IC50 score class, read-out: MAT2A Inhibition (score)
[9] = IC50 score class, read-out: Cell 96 h SDMA Inhibition (HCT116-MTAP+/+) (score)
[10] = read-out: Cell 96 h SDMA inhibition (HCT116-MTAP+/+)
[11] = IC50 score class, read-out: Cell 96 h SDMA Inhibition (HCT116-MTAP−/−) (score)
[12] = read-out: Cell 96 h SDMA Inhibition (HCT116-MTAP−/−)
[13] = HCT116-MTAP wild-type (+/+) cells, IC50 score, read-out: Tumor cell 5-day relative growth inhibition (HCT116-MTAP+/+) (nM), score
[14] = HCT116-MTAP wild-type (+/+) cells, IC50 value, read-out: Tumor cell 5-day relative growth inhibition (HCT116-MTAP+/+)
[15] = HCT116-MTAP−/− cells, IC50 class score, read-out: Tumor cell 5-day relative growth inhibition (HCT116-MTAP−/−) (nM), score
[16] = HCT116-MTAP−/− cells, read-out: Tumor cell 5-day relative growth inhibition (HCT116-MTAP−/−)
[17] = HCT116-MTAP+/+ cells, IC50 class score, read-out: Tumor cell 5-day relative growth inhibition (HCT116-MTAP+/+) (nM), score
[18] = HCT116-MTAP+/+ cells, read-out: Tumor cell 5-day relative growth inhibition (HCT116-MTAP+/+)

Sequence of MAT2A recombinant protein (P31153 whole entry): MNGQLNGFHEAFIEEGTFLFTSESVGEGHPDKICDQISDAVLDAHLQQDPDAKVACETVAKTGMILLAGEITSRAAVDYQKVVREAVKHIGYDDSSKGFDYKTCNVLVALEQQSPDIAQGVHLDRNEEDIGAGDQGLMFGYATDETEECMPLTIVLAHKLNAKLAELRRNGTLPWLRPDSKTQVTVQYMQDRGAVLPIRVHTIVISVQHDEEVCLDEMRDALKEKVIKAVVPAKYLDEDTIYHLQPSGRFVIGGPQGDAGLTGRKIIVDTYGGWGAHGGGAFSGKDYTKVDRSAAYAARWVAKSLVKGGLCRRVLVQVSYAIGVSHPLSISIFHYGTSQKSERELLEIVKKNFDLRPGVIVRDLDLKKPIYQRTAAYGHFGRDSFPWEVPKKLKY

Row | SMILES | IC50 [1, 6] | IC50 [1, 7] | IC50 [2, 8] | IC50 ([2]; read-out: MAT2A Inhibition) | IC50 [3, 9] | IC50 [3, 10] | IC50 [4, 11] | IC50 [4, 12] | IC50 [5, 13] | IC50 [5, 14] | IC50 [1, 15] | IC50 [1, 16] | IC50 [5, 17] | IC50 [5, 18]
1 | CCn1cc2c(n1)c(=O)n(-c1ccccc1)c1cc(Cl)ccc21 [Compound B2] | ≥ 2000 nM | 2830 nM | 100 to 1000 nM | 105 nM |  |  |  |  |  |  |  |  |  | 
2 | Cn1cc2c(n1)c(=O)n(Cc1cn[nH]c1)c1cc(Cl)ccc21 [Compound B235] |  |  | 100 to 1000 nM | 668 nM | > 3000 nM | > 3000 nM | > 3000 nM | 4280 nM |  |  |  |  |  | 
3 | Cc1c2c(nn1C(F)F)c(=O)n(-c1cccnc1)c1nc(C(F)(F)F)ccc21 [Compound B252] | < 500 nM | 378 nM | < 100 nM | 19.3 nM |  |  | 200 to 1000 nM | 202 nM | 500 to 2000 nM | 1230 nM |  |  |  | 
4 | O=c1c2nn(C(F)F)cc2c2cc(F)c(Cl)cc2n1-c1cccc2[nH]ncc12 [Compound B260] | < 500 nM | 69.7 nM | < 100 nM | 17 nM |  |  | < 200 nM | 57.5 nM |  |  |  |  |  | 
5 | Cn1cc2c(n1)c(=O)n(-c1cccc3[nH]ncc13)c1nc(C(F)(F)F)c(C#N)cc21 [Compound B281] |  |  | < 100 nM | 30 nM | > 3000 nM | > 10000 nM | < 200 nM | 25 nM |  |  |  |  |  | 
6 | Cn1cc2c(n1)c(=O)n(-c1cccc3[nH]nc(Br)c13)c1cc(Cl)ccc21 [Compound B332] |  |  | < 100 nM | 39 nM | > 3000 nM | > 10000 nM | < 200 nM | 9 nM |  |  |  |  |  | 
7 | Cn1cc2c(n1)c(=O)n(-c1cccnc1C(F)(F)F)c1cc(Cl)c(F)cc21 [Compound B342] | < 500 nM | 355 nM |  |  |  |  |  |  | ≥ 2000 nM | > 10000 nM |  |  |  | 
8 | Cn1cc2c(n1)c(=O)n(-c1cccnc1C1CC1)c1cc(Cl)c(C#N)cc21 [Compound B348] | ≥ 2000 nM | > 10000 nM |  |  |  |  |  |  | ≥ 2000 nM | ≥ 10000 nM |  |  |  | 
9 | Cn1cnc2c(=O)n(-c3cccc4[nH]ncc34)c3cc(Cl)c(C#N)cc3c21 [Compound B375] | ≥ 2000 nM | > 10000 nM |  |  |  |  |  |  | ≥ 2000 nM | > 10000 nM |  |  |  | 
10 | Cn1cc2c(n1)c(=O)n(-c1cccc3[nH]ncc13)c1cc(C(F)(F)F)c(C#N)cc21 [Compound B391] |  |  | < 100 nM | 10 nM | > 3000 nM | > 10000 nM | < 200 nM | 11 nM |  |  |  |  |  | 
11 | CCOc1ccc2c3cn(C)nc3c(=O)n(-c3ccc(OC(F)F)cc3)c2n1 [Compound B400] |  |  |  |  |  |  |  |  |  |  | ≥ 2000 nM | > 10000 nM | ≥ 2000 nM | > 10000 nM
12 | Cn1cnc2c(=O)n(-c3ccc4ncccc4c3)c3nc(C(F)(F)F)ccc3c21 [Compound B401] |  |  |  |  |  |  |  |  |  |  | ≥ 2000 nM | > 10000 nM | ≥ 2000 nM | > 10000 nM
